Results as given in ChEMBL document CHEMBL1201862, “PubChem BioAssay data set” (2004).
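These data come from cells grown in 96-well plates and exposed to compound for 48 hours at five concentrations. Abbreviation: GI50, concentration required for 50% inhibition of growth.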 Active and inactive are the calls of the source. Rule as the data show it: active = GI50 up to about 1.1 µM and inactive = higher.

How the values were obtained:
Test in all cases: growth of human tumour cells (NCI), 48 h
NCI-H23 = tested on: NCI-H23
DMS-114 = tested on: DMS-114
A498 = tested on: A498
HT-29 = tested on: HT-29
K562 = tested on: K562
SNB-19 = tested on: SNB-19
OVCAR-5 = tested on: OVCAR-5
HOP-18 = tested on: HOP-18
HOP-62 = tested on: HOP-62
CAKI-1 = tested on: CAKI-1
SF-539 = tested on: SF-539
DLD-1 = tested on: DLD-1
UACC-62 = tested on: UACC-62
NCI-H522 = tested on: NCI-H522
LXFL 529 = tested on: LXFL 529
SF-295 = tested on: SF-295
MOLT-4 = tested on: MOLT-4
SF-268 = tested on: SF-268
KM-20L2 = tested on: KM-20L2
UO-31 = tested on: UO-31
LOX IMVI = tested on: LOX IMVI
SN12C = tested on: SN12C
HOP-92 = tested on: HOP-92
OVCAR-3 = tested on: OVCAR-3
NCI-H226 = tested on: NCI-H226
RXF 631 = tested on: RXF 631
HCT-15 = tested on: HCT-15
SK-MEL-28 = tested on: SK-MEL-28
COLO 205 = tested on: COLO 205
M19-MEL = tested on: M19-MEL
SK-OV-3 = tested on: SK-OV-3
IGROV-1 = tested on: IGROV-1
HCT-116 = tested on: HCT-116
KM12 = tested on: KM12
U-251 = tested on: U-251
NCI-H460 = tested on: NCI-H460
SNB-78 = tested on: SNB-78
HL-60 = tested on: HL-60
SK-MEL-5 = tested on: SK-MEL-5
RPMI-8226 = tested on: RPMI-8226
SNB-75 = tested on: SNB-75
OVCAR-4 = tested on: OVCAR-4
M14 = tested on: M14
OVCAR-8 = tested on: OVCAR-8
Malme-3M = tested on: Malme-3M
ACHN = tested on: ACHN
TK-10 = tested on: TK-10
CCRF-CEM = tested on: CCRF-CEM
A549 = tested on: A549
786-0 = tested on: 786-0
SW-620 = tested on: SW-620
UACC-257 = tested on: UACC-257
SK-MEL-2 = tested on: SK-MEL-2
SR = tested on: SR
HCC 2998 = tested on: HCC 2998
EKVX = tested on: EKVX

For `COc1nc(NC2OCC(OC(C)=O)C(OC(C)=O)C2OC(C)=O)c(-c2csc(N)n2)c(=O)n1C` (stereo not given), the GI50 (NCI-H23) was > 100 µM (inactive), the GI50 (DMS-114) was > 100 µM (inactive) and the GI50 (A498) was > 100 µM (inactive). The GI50 (HT-29) was > 100 µM (inactive), the GI50 (K562) was > 100 µM (inactive) and the GI50 (SNB-19) was > 100 µM (inactive). For the same molecule, the GI50 (OVCAR-5) was > 100 µM (inactive), the GI50 (HOP-18) was > 100 µM (inactive) and the GI50 (HOP-62) was > 100 µM (inactive). For the same molecule, the GI50 (CAKI-1) was > 100 µM (inactive), the GI50 (SF-539) was > 100 µM (inactive) and the GI50 (DLD-1) was > 100 µM (inactive). The GI50 (UACC-62) was > 100 µM (inactive), the GI50 (NCI-H522) was > 100 µM (inactive) and the GI50 (LXFL 529) was > 100 µM (inactive). For the same molecule, the GI50 (SF-295) was > 100 µM (inactive), the GI50 (MOLT-4) was > 100 µM (inactive) and the GI50 (SF-268) was > 100 µM (inactive). For the same molecule, the GI50 (KM-20L2) was > 100 µM (inactive), the GI50 (UO-31) was > 100 µM (inactive) and the GI50 (LOX IMVI) was > 100 µM (inactive). The GI50 (SN12C) was > 100 µM (inactive), the GI50 (HOP-92) was > 100 µM (inactive) and the GI50 (OVCAR-3) was > 100 µM (inactive). For the same molecule, the GI50 (NCI-H226) was > 100 µM (inactive), the GI50 (RXF 631) was > 100 µM (inactive) and the GI50 (HCT-15) was greater than 100 µM. For the same molecule, the GI50 (SK-MEL-28) was > 100 µM (inactive), the GI50 (COLO 205) was > 100 µM (inactive) and the GI50 (M19-MEL) was > 100 µM (inactive). For the same molecule, the GI50 (SK-OV-3) was > 100 µM (inactive), the GI50 (IGROV-1) was > 100 µM (inactive) and the GI50 (HCT-116) was > 100 µM (inactive). For the same molecule, the GI50 (KM12) was > 100 µM (inactive), the GI50 (U-251) was > 100 µM (inactive) and the GI50 (NCI-H460) was > 100 µM (inactive). For the same molecule, the GI50 (SNB-78) was > 100 µM (inactive), the GI50 (HL-60) was > 100 µM (inactive) and the GI50 (SK-MEL-5) was > 100 µM (inactive). The GI50 (RPMI-8226) was > 100 µM (inactive), the GI50 (SNB-75) was > 100 µM (inactive) and the GI50 (OVCAR-4) was > 100 µM (inactive). For the same molecule, the GI50 (M14) was > 100 µM (inactive), the GI50 (OVCAR-8) was > 100 µM (inactive) and the GI50 (Malme-3M) was > 100 µM (inactive). The GI50 (ACHN) was > 100 µM (inactive), the GI50 (TK-10) was > 100 µM (inactive) and the GI50 (CCRF-CEM) was > 100 µM (inactive). The GI50 (A549) was > 100 µM (inactive), the GI50 (786-0) was > 100 µM (inactive) and the GI50 (SW-620) was > 100 µM (inactive). For the same molecule, the GI50 (UACC-257) was > 100 µM (inactive), the GI50 (SK-MEL-2) was > 100 µM (inactive) and the GI50 (SR) was > 100 µM (inactive).

`C/C(=C1/N=C(c2cc([N+](=O)[O-])ccc2Cl)N(C2=CC=C(Cl)CC2)C1=O)c1cc2ccccc2oc1=O` was tested, and the GI50 (NCI-H23) was 14.4 µM (inactive), the GI50 (DMS-114) was 19.3 µM (inactive) and the GI50 (A498) was 23.4 µM (inactive). The GI50 (HT-29) was 63.4 µM (inactive), the GI50 (K562) was > 100 µM (inactive) and the GI50 (SNB-19) was 44.1 µM (inactive). For the same molecule, the GI50 (OVCAR-5) was 41.5 µM (inactive), the GI50 (HOP-18) was 21.2 µM (inactive) and the GI50 (HOP-62) was 31.5 µM (inactive). The GI50 (CAKI-1) was 32.7 µM (inactive), the GI50 (SF-539) was 10.7 µM (inactive) and the GI50 (DLD-1) was 20 µM (inactive). The GI50 (UACC-62) was 29.2 µM (inactive), the GI50 (NCI-H522) was 14.4 µM (inactive) and the GI50 (LXFL 529) was 13.1 µM (inactive). For the same molecule, the GI50 (SF-295) was 41.7 µM (inactive), the GI50 (MOLT-4) was 54.6 µM (inactive) and the GI50 (SF-268) was 36.9 µM (inactive). For the same molecule, the GI50 (KM-20L2) was 18.7 µM (inactive), the GI50 (UO-31) was 21.8 µM (inactive) and the GI50 (LOX IMVI) was 20.4 µM (inactive). For the same molecule, the GI50 (SN12C) was 23.4 µM (inactive), the GI50 (OVCAR-3) was 36.8 µM (inactive) and the GI50 (NCI-H226) was 29 µM (inactive). For the same molecule, the GI50 (RXF 631) was 56 µM (inactive), the GI50 (HCC 2998) was 24.7 µM (inactive) and the GI50 (SK-MEL-28) was 26.3 µM (inactive). For the same molecule, the GI50 (EKVX) was > 100 µM (inactive), the GI50 (COLO 205) was 47.6 µM (inactive) and the GI50 (M19-MEL) was 45.5 µM (inactive). For the same molecule, the GI50 (SK-OV-3) was > 100 µM (inactive), the GI50 (IGROV-1) was 27.6 µM (inactive) and the GI50 (HCT-116) was 37.4 µM (inactive). The GI50 (KM12) was 19.9 µM (inactive), the GI50 (U-251) was 49.2 µM (inactive) and the GI50 (NCI-H460) was 28 µM (inactive). For the same molecule, the GI50 (SNB-78) was 47.9 µM (inactive), the GI50 (HL-60) was 20 µM (inactive) and the GI50 (SK-MEL-5) was 24.3 µM (inactive). For the same molecule, the GI50 (RPMI-8226) was 32.4 µM (inactive), the GI50 (SNB-75) was 32.4 µM (inactive) and the GI50 (OVCAR-4) was 24.4 µM (inactive). The GI50 (M14) was 23.9 µM (inactive), the GI50 (OVCAR-8) was 51.5 µM (inactive) and the GI50 (Malme-3M) was 28.5 µM (inactive). For the same molecule, the GI50 (ACHN) was 3.93 µM (inactive), the GI50 (CCRF-CEM) was 40.3 µM (inactive) and the GI50 (A549) was 27.9 µM (inactive). For the same molecule, the GI50 (SW-620) was 36.5 µM (inactive), the GI50 (UACC-257) was 26.5 µM (inactive) and the GI50 (SR) was 28.6 µM (inactive).
